From patent publication US10301308B2, “Azetidine derivatives for tau imaging” (Eli Lilly and Company, priority 2015, dated 2019)

What was measured:
[1] = Mouse PET/CT time activity curves; format: in vivo, CD-1 wild type mice
Experimental: Dynamic Micro-Positron Emission Tomography (mPET) images are obtained from CD-1 wild type mice using 3-(3-[18F]-fluoroazetidin-1-yl)-8-methylbenzo[4,5]imidazo[1,2-a]pyridine. Micro-Computed Tomography (mCT) of each subject is used as anatomical reference for image analysis. Biodistribution of the tracer in brain, muscle, bone, liver, and kidney is assessed by generating Time Activity Curves (TAC) using the fused mPET/mCT images. An INVEON multimodality scanner (Siemens, Germany) is used for mPET/mCT. All animal work is performed in accordance with the University of Sciences Institutional Animal Care & Use Committee-approved procedures.
Animals are anesthetized with 3% isoflurane/97% oxygen and are placed on the scanner bed. A short high-resolution CT scan is first performed for anatomical registration, followed by a 120-minute PET scan. During the PET scan a water heating system is placed underneath the bed to help maintain the body temperature. Within 3 minutes after the beginning of the PET acquisition, the [18F]-labeled compound 3-(3-[18F]-fluoroazetidin-1-yl)-8-methylbenzo[4,5]imidazo[1,2-a]pyridine is administered to the animals via tail vein injection (250 uCi in a total volume of 200 uL saline). A PET image is generated for each minute of the acquisition time. Uptake of the tracer is obtained by visually drawing regions of interest based on the fused PET/CT images, and the corresponding activity values are determined using the INVEON Research Workplace software (Siemens, Germany). All values are represented as percent injected dose per gram (% ID/g).
The mouse PET/CT time activity curves of 3-(4-(2-[18F]-fluoroethyl)piperidin-1-yl)-8-methoxybenzo[4,5]imidazo[1,2-a]pyridine (T821) (See FIG. 9) and of 3-(4-[18F]-fluoropiperidin-1-yl)-8-methoxybenzo[4,5]imidazo[1,2-a]pyridine (T798) (See FIG. 10) are obtained as described in Assay Example 7 (T821 and T798 are recited in US2011/0182812). […] Therefore, when imaging with T821 and/or T798, the undesirable non-tau PET signals from the skull bones could interfere with desired tau signals from the brain cortex. Thus, in addition to the lack of selectivity for T821 and T798, these compounds would further represent poor candidates for human brain tau PET tracers because of the interfering radioactivity signal from bone. […] The advantageous properties of Compound 8 are useful to provide enhanced tau PET imaging in humans. This combination of critical properties was not known and could not have been predicted from existing tau imaging compounds.

[2] = Clinical PET kinetic profile: brain uptake, washout, metabolism; format: in vivo, human
Experimental: Clinical evaluation of 3-(3-[18F]-Fluoroazetidin-1-yl)-8-methylbenzo[4,5]imidazo[1,2-a]pyridine (Compound 8) as a PET radioligand for imaging tau protein deposition in patients with AD or other neurodegenerative disorders is conducted in healthy volunteers. AD patients, or Chronic Traumatic Encephalopathy (CTE) subjects, by completion of one or more PET scans with Compound 8. Dynamic PET imaging is acquired on a Siemens ECAT EXACT HR+ over 150 minutes following Compound 8 or [18F]AV-1451 injection (0-60 and 90-150 minute imaging segments). Compound 8 or [18F]AV-1451 scans are acquired similarly in two imaging sessions. A brain MRI is also obtained. PET and MRI images are aligned and normalized, and ATLAS-based volumes of interest (VOI) are applied to the dynamic PET series. Compound 8 or [18F]AV-1451 are evaluated in terms of kinetic profile as well as target region to cerebellum standardized uptake value ratio (SUVr between 100-120 min) between healthy volunteers and AD or CTE subjects.

[3] = system: normal human brain tissue; assay: Autoradiography on normal versus AD human brain slices, less stringent or alcohol free washes; format: binding
Description: In order to show the absence of non-tau binding, autoradiography scans are obtained from 3-(3-[18F]-fluoroazetidin-1-yl)-8-methylbenzo[4,5]imidazo[1,2-a]pyridine on normal human brain tissue. The experimental procedure is the same as provided in Example 5 except that only 20 uCi of 18F-ligand is applied to the tissue slices and the washing conditions are less stringent. […] The autoradiography is further carried out with no ethanol in the washing solutions.

[4] = Preliminary stability of Compound 8 formulations (radiochemical purity by HPLC); format: physicochemical
Experimental: The HPLC fraction containing the purified 3-(3-[18F]-fluoroazetidin-1-yl)-8-methylbenzo[4,5]imidazo[1,2-a]pyridine is diluted with 0.5% (w/v) sodium ascorbate in WFI (40 mL). The diluted solution is then passed through a Sep-Pak® C18 Plus Light Cartridge (130 mg Sorbent per Cartridge, 55-105 μm Particle Size, Waters Part No. WAT023501; conditioned with ethanol (5 mL) then WFI (5 mL) prior to use) and the retained 3-(3-[18F]-fluoroazetidin-1-yl)-8-methylbenzo[4,5]imidazo[1,2-a]pyridine is washed with 0.5% (w/v) sodium ascorbate in water for injection solution (10 mL). 3-(3-[18F]-fluoroazetidin-1-yl)-8-methylbenzo[4,5]imidazo[1,2-a]pyridine is eluted off the C18 cartridge using dehydrated alcohol, USP (1 mL) into a flask containing 7 mL of 0.5% (w/v) sodium ascorbate in 0.9% sodium chloride for injection, USP. The C18 cartridge is then rinsed with an additional 2 mL of 0.5% (w/v) sodium ascorbate in 0.9% sodium chloride for injection, USP. The resulting solution (total 10 mL) is sterile filtered through a 0.22 μm Millex GV PVDF filter (Millipore SLGV013SL) into the bulk product vial (BPV: 30 mL Sterile Empty Vial from Allergy Laboratories with a 20 mm chlorobutyl stopper). A sample from the BPV is taken out for quality control (see FIG. 2 for representative chromatogram) by HPLC using the gradient method detailed in Table 1 below.
Preliminary stability of 3-(3-[18F]-fluoroazetidin-1-yl)-8-methylbenzo[4,5]imidazo[1,2-a]pyridine (Compound 8) formulations are evaluated. Samples from batches (size ranging from 235 mCi to 471 mCi) are taken and analyzed by HPLC for radiochemical purity over an 6 hour time period.

[5] = mouse PET/CT time activity curves
[6] = tail vein injection, 120-minute PET scan
[7] = batch 235 mCi, 23.5 mCi/mL, 10% EtOH, 0.45% Sodium Ascorbate in 0.9% Sodium Chloride
[8] = batch 295 mCi, 14.8 mCi/mL, 10% EtOH, 0.45% Sodium Ascorbate in 0.9% Sodium Chloride
[9] = batch 337 mCi, 33.7 mCi/mL, 10% EtOH, 0.45% Sodium Ascorbate in 0.9% Sodium Chloride
[10] = batch 471 mCi, 47.1 mCi/mL, 10% EtOH in 0.9% Sodium Chloride (no sodium ascorbate)

## Cc1ccc2nc3cc(N4CC([18F])C4)ccn3c2c1 [Compound 8, 3-(3-[18F]-fluoroazetidin-1-yl)-8-methylbenzo[4,5]imidazo[1,2-a]pyridine]
[1]; [5]
  bone uptake of radioactivity: negligible radioactivity signal in bone
  brain uptake compared to T821 and T798: significantly superior and surprising brain uptake
[1]; mouse PET/CT time activity curves, listed as 3-(3-[18F]-Fluoroazetidin-1-yl)-8-methylbenzo[4,5]imidazo[1,2-a]pyridine
  bone uptake of radioactivity: no significant uptake of radioactivity in bone tissue
[1]; [6]
  brain entry compared with [18F]AV-1451: higher % ID/g than [18F]AV-1451
  clearance from brain: cleared quickly
[2]; 60 min post injection, n=7
  intact parent remaining: 5±3%
[2]; healthy volunteers and AD subjects
  max SUV relative to that of [18F]AV-1451: ~50 % higher
[2]; human subjects, dynamic PET
  peak brain uptake: ~8 SUV
[3]; AD30121, frontal cortex
  blocking of signal in AD brain tissue: can be blocked by non-radiolabelled compound or with the known tau PET tracer T807
[3]; no ethanol in the washing solutions
  autoradiography signal in normal cortical or white matter tissue compared to [18F]T807: much lower autoradiography signal
[3]; washes PBS, 10% ethanol/PBS, 30% ethanol/PBS, PBS, vs AD brain tissue
  radioactivity signal in normal tissue: considerably lower than in AD brain tissue
[4]; batch 235 mCi, 23.5 mCi/mL, 10% EtOH (v/v), 0.45% (w/v) Sodium Ascorbate in 0.9% Sodium Chloride Injection, USP
  Stability Results (% RCP) T0: 98 % RCP
[4]; [7]
  Stability Results (% RCP) T0+2 h: 97 % RCP
  Stability Results (% RCP) T0+4 h: 97 % RCP
[4]; batch 235 mCi, 23.5 mCi/mL, 10% EtOH, 0.45% Sodium Ascorbate in 0.9% Sodium Chloride, T0+6 h
  Stability Results (% RCP) T0+6 h: 97 % RCP
[4]; [8]
  Stability Results (% RCP) T0: 97 % RCP
  Stability Results (% RCP) T0+2 h: 96 % RCP
  Stability Results (% RCP) T0+4 h: 96 % RCP
[4]; batch 295 mCi, 14.8 mCi/mL, 10% EtOH, 0.45% Sodium Ascorbate in 0.9% Sodium Chloride, T0+6 h
  Stability Results (% RCP) T0+6 h: 96 % RCP
[4]; [9]
  Stability Results (% RCP) T0: 98 % RCP
  Stability Results (% RCP) T0+2 h: 97 % RCP
  Stability Results (% RCP) T0+4 h: 96 % RCP
[4]; batch 337 mCi, 33.7 mCi/mL, 10% EtOH, 0.45% Sodium Ascorbate in 0.9% Sodium Chloride, T0+6 h
  Stability Results (% RCP) T0+6 h: 96 % RCP
[4]; batch 471 mCi, 47.1 mCi/mL, 10% EtOH (v/v) in 0.9% Sodium Chloride Injection, USP (no sodium ascorbate)
  Stability Results (% RCP) T0: 89 % RCP
[4]; [10]
  Stability Results (% RCP) T0+2 h: 89 % RCP
  Stability Results (% RCP) T0+4 h: 80 % RCP
[4]; batch 471 mCi, 47.1 mCi/mL, 10% EtOH in 0.9% Sodium Chloride (no sodium ascorbate), T0+6 h column, value taken at 5 h
  Stability Results (% RCP) T0+6 h: 0 (5 h) % RCP
[4]; batch formulated without sodium ascorbate
  stability of formulation over time: deteriorates over time and degrades by 5 hours
[4]; batches formulated with sodium ascorbate, up to 6 hours
  radiochemical purity retained: 96-97%
